EP0623616A1, “Heterocyclic compounds and process for the preparation thereof” (EGIS GYOGYSZERGYAR RT., priority 1993, dated 1994)
Where two headings read alike, the source gives them in different places.

How the values were obtained:
[1] = system: Male rats belonging to the Spraghe Dawley strain; test: Elevated plus maze test on rat; type: in vivo; conditions: for MED: p.o., minimum effective dose causing a significant increase of time spent on the open arms, rats, pretreatment 60 minutes
Protocol: The test was carried out with the aid of a wooden plus-shaped maze elevated to a height of 50 cm. Two arms (100 cm long and 15 cm wide) - opposite to one another - were enclosed up to a height of 40 cm along their longer sides and at the end. The other two arms were without walls (open arms). The central 15x15 cm part was open. Male rats belonging to the Spraghe Dawley strain and weighing 220 to 260 g were used as test animals. After pretreatment lasting 60 minutes the animals were placed into the central part of the maze. During the 5 minutes observation period the following parameters were recorded: • time spent on the open arms • time spent on the closed arms • number of open arm entries • number of closed arm entries.
The drug effect was expressed as percent increase of the time spent on the open arms and number of open arm entries. The minimum effective dose which caused a significant increase of the time spent on the open arms was calculated for every substance [Pelow, S., Chopin, P., File, S.E., Briley, M.:J. Neurosci. Methods 14, 149-167 (1985)].

[2] = system: Male Wistar rats; test: Vogel test (drinking conflict test); type: in vivo; conditions: for MED: minimum effective dose, increase of tolerated shocks, rats, intraperitoneally half an hour before testing
Protocol: Male Wistar rats of 160 to 180 g body weight were kept free of food and drinking water for 24 and 48 hours, respectively. Test and carrier substances were administered intraperitoneally half an hour before testing. Animals within the experimental chamber were provided with drinking water through an inserted tube. After the animals' each twenty lapping for water the device emitted a 2 mA intensity electric shock through the drinking tube. During 5 minutes the shocks tolerated by the animals in order to quench their thirst were counted. The effect of treatment was expressed as the % increase of the tolerated shocks. The minimum effective dose (MED) was determined for each test compound [Vogel, J.R., Beer, B., Clody, D.E.:Psychopharmacologia (Berl.)21, 1(1971)].

[3] = system: Male Wistar rats; test: Conditioned avoidance response inhibition (shuttle box); type: in vivo; conditions: for Conditioned relfex ID50: rats, 50% inhibiting dose, dosing one hour before the measurement, oral
Protocol: The antipsychotic (neuroleptic) effect was measured by the inhibition of the learned conditioned avoidance reflex. The male Wistar rats used for the study were of 120 to 150 g body weight at the beginning of learning. A shuttle box was used as experimental device, it consisted of two parts, 24x24,5x23 cm each, separated by a wall with a 6x9 cm gate. In response to a suitable warning stimulus, in order to avoid the punishing (unconditioned) stimulus, animals within the box passed through the gate from one part to the other. The warning, i.e. conditioned stimulus (CS), a white light (1 Hz) blinking for 15 seconds, was applied at the actual place of the animal. The unconditioned stimulus (US), in form of 0,6 mA intensity electric shock, was randomly applied to the paw during the last 5 seconds of the conditioned stimulus. The animal's movement during the CS and US from one part of the box to the other was defined as avoidance and escape response, respectively. Both responses ceased the actual stimulus and stopped the trial. The time elapsed until the next trial (intertrial interval, ITI) was 15 seconds. While one experiment was carried out daily, an experiment consisted of 80 trials. Learning efficiency was expresses as percentage of the successful to the total avoidances. Effect of the neuroleptic drugs was examined in animals with stabilized conditioned reflexes and with at least 75% learning efficiency. Dosing was carried out once a week, one hour before the measurement in the shuttle box. To calculate the neuroleptic effect (50% inhibiting dose, ID₅₀), the results obtained after the treatment were compared to those obtained on the previous day (controls).

[4] = system: mice; test: Effect on the spontaneous motor activity (method of Borsy et al., 10-channel Dews system); type: in vivo; conditions: for Mobility inhibition ID50: treated orally, 1 hour after treatment, interruptions of infrared beam within 30 minutes
Protocol: The test was carried out according to the method of Borsy et al. Groups consisting of 3 mice each were treated orally with different doses of the compounds to be tested 1 hour after treatment with the test compound or the vehicle the animals were placed into a 10-channel Dews system equipment. In this equipment the number of interruptions of infrared beam within 30 minutes was counted. From these date 50% inhibiting doses (IC₅₀) were determined with the aid of a line of regression [Borsy, J., Csanyi, E., Lazar, I.: Arch. Int. Pharmacodyn. 124, a (1960)].

[5] = system: Male Wistar rats; conditions: value taken from literature (J. Med. Chem. 29(3), 363(1986); Drugs of Future 10(II), 731(1985)); cited from earlier work
[6] = system: mice; conditions: value taken from literature (Drugs of Future 10(II), 731 (1985)); cited from earlier work
[7] = Vogel test, ratio of MED values

## 8-{4-[4-(1,2-Benzisothiazol-3-yl)-1-piperazinyl]-but-2-ynyl}-8-azaspiro[4,5]decane-7,9-dione [Example 1]
[1]; elevated plus maze, ratio of MED values
  effectiveness relative to Ritanserin: twice as effective
[1]
  MED: 2,5 mg/kg
[2]; [7]
  effectiveness relative to chlorodiazepoxide: twice as effective
  times as effective as Meprobamate: 5
[2]
  MED: 5.0 mg/kg
[3]
  Conditioned relfex ID50: 30,0 mg/kg
[3]; up to an oral dose of 30 mg/kg, result in words
  influence on the conditioned avoidance response: does not influence the conditioned avoidance response
[4]; result in words
  influence on the spontaneous motor activity: does not influence the spontaneous motor activity
[4]
  Mobility inhibition ID50: ineffective(>100) mg/kg

## CNC1=Nc2ccc(Cl)cc2C(c2ccccc2)=[N+]([O-])C1 [Chlorodiazepoxide]
[2]
  MED: 10.0 mg/kg
[4]
  Mobility inhibition ID50: 56,0 mg/kg

## CN(C)CCCN1c2ccccc2Sc2ccc(Cl)cc21 [Chloropromazine]
[3]
  Conditioned relfex ID50: 13,2 mg/kg

## CN1C(=O)CN=C(c2ccccc2)c2cc(Cl)ccc21 [Diazepam]
[4]
  Mobility inhibition ID50: 23,0 mg/kg

## O=C(CCCN1CCC(O)(c2ccc(Cl)cc2)CC1)c1ccc(F)cc1 [Haloperidol]
[3]
  Conditioned relfex ID50: 0,6 mg/kg

## CCCC(C)(COC(N)=O)COC(N)=O [Meprobamate]
[1]
  MED: >10,0 mg/kg
[2]
  MED: 25.0 mg/kg

## Cc1nc2sccn2c(=O)c1CCN1CCC(=C(c2ccc(F)cc2)c2ccc(F)cc2)CC1 [Ritanserin]
[1]
  MED: 5,0 mg/kg

## O=C1CC2(CCCC2)CC(=O)N1CCCCN1CCN(c2nsc3ccccc23)CC1 [Thiaspiron, thiaspiron]
[5]
  Conditioned relfex ID50: 10,5 mg/kg
[6]
  Mobility inhibition ID50: 8,4 mg/kg
